{
  "source": "patent US12251379B2",
  "about": "“Methods of inhibiting formation of alpha synuclein aggregates” (THE REGENTS OF THE UNIVERSITY OF CALIFORNIA, priority 2018, dated 2025)",
  "key": {"[1]": {"system": "MPTP-induced neurotoxicity in the mouse SN", "conditions": "cited from earlier work"}, "[2]": {"system": "eicosanoids metabolites in the striatum", "experiment": "Oxylipin profiling of striatum from MPTP-treated mice", "assay_type": "in vivo, mouse", "conditions": "MPTP 10 mg/kg×3 IP, 7 days after injection; mean +/− SEM", "method": "Oxylipin profiling. […] Striatum was dissected from brain, and the samples were stored at −80° C. before assay. Measurement of eicosanoids was performed using the previous method (59)."}, "[3]": {"system": "MPTP-induced neurotoxicity in the striatum and SN", "experiment": "MPTP-induced mouse model of PD: immunohistochemistry of DAT and TH", "conditions": "MPTP 10, 15, or 20 mg/kg ×3 IP, 2-h intervals; 7 days after injection"}, "[4]": {"system": "ER stress, oxidative stress, sEH and α-synuclein proteins in the mouse striatum", "experiment": "Western blot analysis of mouse striatum after MPTP", "assay_type": "in vivo", "method": "Western blot analysis of mouse brain samples. Western blot analysis was performed as reported previously (53,56). Mice were killed by cervical dislocation and brains were rapidly removed from the skull, and the striatum of mice were dissected on ice. The tissue samples were homogenized in Laemmli lysis buffer. […] Proteins were transferred onto polyvinylidenedifluoride (PVDF) membranes using a Trans Blot Mini Cell (Bio-Rad). For immunodetection, the blots were blocked with 2% BSA in TBST (TBS+0.1% Tween-20) for 1 h at room temperature (RT), and kept with primary antibodies overnight at 4° C. […] After final three washes with TBST, bands were detected using enhanced chemiluminescence (ECL) plus the Western Blotting Detection system (GE Healthcare Bioscience). Images were captured with a ChemDoc imaging system (Bio-Rad), and the immunoreactive bands were analysis by Image Lab software."}, "[5]": {"conditions": "pH 7.4; cited from earlier work"}, "[6]": {"conditions": "PTZ induced seizure model; Example 52 and FIG. 7 of WO 2015/148954; cited from earlier work"}, "sEH": {"target": "sEH (Homo sapiens (Human), UniProt P34913)", "sequence (P34913 whole entry)": "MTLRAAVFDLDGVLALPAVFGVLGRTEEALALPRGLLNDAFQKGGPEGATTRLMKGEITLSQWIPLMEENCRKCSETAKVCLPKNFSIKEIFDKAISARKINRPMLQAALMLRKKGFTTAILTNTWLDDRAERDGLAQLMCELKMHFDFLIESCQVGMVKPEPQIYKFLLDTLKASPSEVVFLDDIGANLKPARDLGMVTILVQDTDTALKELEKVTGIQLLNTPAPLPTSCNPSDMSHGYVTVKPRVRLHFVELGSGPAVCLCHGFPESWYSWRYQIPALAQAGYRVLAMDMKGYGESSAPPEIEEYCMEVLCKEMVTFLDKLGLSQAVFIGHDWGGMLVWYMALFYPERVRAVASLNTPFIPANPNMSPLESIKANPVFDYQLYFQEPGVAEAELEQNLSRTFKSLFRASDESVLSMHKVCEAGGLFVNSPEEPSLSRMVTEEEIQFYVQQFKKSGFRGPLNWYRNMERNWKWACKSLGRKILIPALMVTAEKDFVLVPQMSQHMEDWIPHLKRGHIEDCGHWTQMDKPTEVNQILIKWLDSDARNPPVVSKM", "conditions": "cited from earlier work"}},
  "data": [
    {"smiles": "O=C(O)CCCCCCCCCCCNC(=O)NC12CC3CC(CC(C3)C1)C2", "note": "[AUDA, 12-(3-Adamantan-1-yl-ureido)dodecanoic acid]", "values": [
      {"measurement": "MPTP-induced neurotoxicity, posttreatment", "setting": "[1]; posttreatment", "value": "did not attenuate"},
      {"measurement": "MPTP-induced loss of TH-positive cells in the mouse SN, pretreatment", "setting": "[1]; pretreatment", "value": "attenuated"}
    ]},
    {"smiles": "CN1CC=C(c2ccccc2)CC1", "note": "[MPTP, 1-methyl-4-phenyl-1,2,3,6-tetrahydropyridine]", "values": [
      {"measurement": "Level of 5(6)-EpETrE in the striatum", "setting": "[2]", "value": "544.908 ± 19.111"},
      {"measurement": "Level of 6-keto-PGF1a in the striatum", "setting": "[2]", "value": "20.015 ± 1.352"},
      {"measurement": "Level of 8(9)-EpETrE in the striatum", "setting": "[2]", "value": "19.048 ± 1.310"},
      {"measurement": "Level of 9(10)-EpOME in the striatum", "setting": "[2]", "value": "6.641 ± 0.431"},
      {"measurement": "Level of 9,10,13-TriHOME in the striatum", "setting": "[2]", "value": "33.635 ± 2.452"},
      {"measurement": "Level of 9,10-DiHOME in the striatum", "setting": "[2]", "value": "1.346 ± 0.158"},
      {"measurement": "Level of 9,12,13-TriHOME in the striatum", "setting": "[2]", "value": "59.487 ± 4.168"},
      {"measurement": "Level of 9-HODE in the striatum", "setting": "[2]", "value": "41.360 ± 3.045"},
      {"measurement": "Level of 9-oxo-ODE in the striatum", "setting": "[2]", "value": "46.977 ± 5.160"},
      {"measurement": "Level of 10(11)-EpDPE in the striatum", "setting": "[2]", "value": "9.530 ± 0.829"},
      {"measurement": "Level of 11(12)-EpETrE in the striatum", "setting": "[2]", "value": "61.583 ± 4.605"},
      {"measurement": "Level of 11-HETE in the striatum", "setting": "[2]", "value": "114.056 ± 5.188"},
      {"measurement": "Level of 12(13)-EpOME in the striatum", "setting": "[2]", "value": "7.073 ± 0.689"},
      {"measurement": "Level of 12,13-DIHOME in the striatum", "setting": "[2]", "value": "8.348 ± 1.710"},
      {"measurement": "Level of 12-HETE in the striatum", "setting": "[2]", "value": "136.621 ± 26.845"},
      {"measurement": "Level of 13-HODE in the striatum", "setting": "[2]", "value": "58.399 ± 5.240"},
      {"measurement": "Level of 14(15)-EpETrE in the striatum", "setting": "[2]", "value": "77.976 ± 11.479"},
      {"measurement": "Level of 15,16-DiHODE in the striatum", "setting": "[2]", "value": "3.667 ± 0.609"},
      {"measurement": "Level of 15-HETE in the striatum", "setting": "[2]", "value": "129.113 ± 6.703"},
      {"measurement": "Level of 19,20-DiHDPE in the striatum", "setting": "[2]", "value": "5.310 ± 0.523"},
      {"measurement": "Level of EKODE in the striatum", "setting": "[2]", "value": "23.007 ± 4.170"},
      {"measurement": "Level of PGD2 in the striatum", "setting": "[2]", "value": "127.452 ± 4.968"},
      {"measurement": "Level of PGE2 in the striatum", "setting": "[2]", "value": "13.830 ± 1.069"},
      {"measurement": "Level of PGF2a in the striatum", "setting": "[2]", "value": "160.704 ± 7.212"},
      {"measurement": "Level of TXB2 in the striatum", "setting": "[2]", "value": "98.406 ± 4.740"},
      {"measurement": "DAT and TH density in the striatum and TH-positive cell number in the SN compared with control mice", "setting": "[3]", "value": "significant reductions"},
      {"measurement": "phosphorylated α-synuclein/α-synuclein ratio in the striatum compared with control mice", "setting": "[4]; MPTP 10 mg/kg×3", "value": "significant increase"},
      {"measurement": "expression of GSH, iNOS, and SOD in the striatum", "setting": "[4]; MPTP 10 mg/kg×3, 7 days after injection", "value": "alterations"},
      {"measurement": "sEH protein in the striatum compared with control mice", "setting": "[4]; MPTP 10 mg/kg×3, three or 7 days after injections", "value": "significant increase"}
    ]},
    {"smiles": "CC[C@H](C)C(=O)N1CCC(NC(=O)Nc2ccc(OC(F)(F)F)c(F)c2)CC1", "note": "[compound 26]", "values": [
      {"measurement": "w.s. (water solubility)", "setting": "[5]", "value": 1, "unit": "µM"}
    ]},
    {"smiles": "O=C(Nc1ccc(OC(F)(F)F)c(F)c1)NC1CCN(C(=O)C2CCOCC2)CC1", "note": "[Compound 29, 1-(3-fluoro-4-(trifluoromethoxy)phenyl)-3-(1-(tetrahydro-2H-pyran-4-carbo-nyl)piperidin-4-yl)urea]", "values": [
      {"measurement": "crossing of the blood-brain barrier", "setting": "[6]", "value": "cross the blood-brain barrier"}
    ]},
    {"smiles": "CCCCCCCCCCCCNC(=O)NC12CC3CC(CC(C3)C1)C2", "note": "[ADU, N-Adamantyl-N′-dodecyl urea]", "values": [
      {"measurement": "activity on sEH", "setting": "sEH", "value": "particularly high activity"}
    ]}
  ]
}
